Reference: patent publication US20260182575A1, “MOLECULES HAVING PESTICIDAL UTILITY AND INTERMEDIATES AND PROCESSES RELATED THERETO” (CORTEVA AGRISCIENCE LLC, priority 2022, published 2026)

Assays:
Type in all cases: in vivo
[1] = test system: Beet Armyworm (Spodoptera exigua, LAPHEG, BAW); assay: Bioassay 7: beet armyworm, artificial diet, 96 well plate; settings: AI alone at 0.4 wt %
Protocol: (§1) The test solutions were tested against CEW, FAW, BAW, and SBL using the following procedure: an artificial lepidopteran diet (Multispecies Lepidopteran Diet, Southland Products) was distributed in 96 well plate. Twenty μL of test solution was pipetted onto a cell in the bioassay plate. […] Each treatment was replicated 5 times for each species. Approximately five first instar CEW, FAW, BAW, or SBL larva were placed on top of the diet in each cell and was contained with a clear perforated adhesive lid. Test trays were held at approximately 25° C. and ambient relative humidity prior to grading. After five days, the number of cells where all the larvae were dead were recorded as 100% and averaged across all replicates; then the percent control was measured using Abbott's correction formula (W. S. Abbott, J. Econ. Entomol. 18 (1925), pp. 265-267) as follows:
(§2) where X=No. of live larvae on solvent check and Y=No. of live larvae on treated diet. In Table 7 the “Expected % Control” was calculated using the method described in Colby S. R., Weeds, 1967, 15, 20-22. Bioassay 8: Western Corn Rootworm (Diabrotica virgifera virgifera, DIABVI, “WCR”)

[2] = test system: Soybean Looper (Chrysodeixis includens, PSEPIN, SBL); assay: Bioassay 7: soybean looper, artificial diet, 96 well plate; settings: CL
Protocol: as §1, §2

[3] = test system: Western Flower Thrips (Frankliniella occidentalis, FRANOC, WFT); assay: Bioassay 3: western flower thrips, cotton leaf disc dip; settings: 3 days
Protocol: Stock solutions of F1 and various active ingredients were prepared initially at a concentration of 0.1 mg/mL using acetone as a diluent. Stock solutions were prepared with F1 as well as for each of the active ingredients individually. Test solutions were prepared from the stock solutions. Test solutions were prepared containing F1, the individual active ingredients, and mixtures of F1 with each of the active ingredients. The test solutions for F1 and the individual active ingredients were prepared by adding 500 μL of stock solution to a 25 mL glass vial, then adding 500 μL of acetone, followed by the addition of 9 mL water with 0.025% Tween® 20 to create a 0.0005% (w/v) solution. The test solutions containing mixtures of F1, and the individual active ingredients were prepared by adding 500 μL of the active ingredient stock solution to a 25 mL glass vial, followed by 500 μL of the F1 stock solution, then by the addition of 9 mL water with 0.025% Tween® 20 to create a test solution containing 0.0005% (w/v) F1 and 0.0005% (w/v) of the active ingredient. Each test solution was serially diluted to create desired doses of test solutions (0.0005% (w/v), 0.000125% (w/v), 0.00003125% (w/v), 0.0000078% (w/v), and 0.00000195% (w/v)).
The test solutions were tested against WFT using the following procedure: Leaf discs (2.7 cm in diameter) were cut from the true leaves of cotton plants. Leaf discs were dipped into the test solutions and shaken to ensure complete coverage of the leaf disc and then placed in Millipore® PetriSlides containing a filter paper disc. Treated leaf discs were air dried for approximately 1 hour. Each leaf disc was infested with 5 WFT (9-10-day old nymphs) by placement on each leaf disc, and the PetriSlides were capped to prevent escape. Each treatment was replicated three times and the test treatments were held at approximately 26° C. and ambient relative humidity (RH) prior to grading. Reference discs (solvent check) were treated with the diluent only. Evaluation was conducted by counting the number of live WFT under magnification 3 days after treatment. Percent control was measured using Abbott's correction formula (W. S. Abbott, J. Econ. Entomol. 18 (1925), pp. 265-267) as follows:
where X=No. of live nymphs on solvent check leaf discs and Y=No. of live nymphs on treated leaf discs. In Table B3 the “Expected % Control” was calculated using the method described in Colby S. R., Weeds, 1967, 15, 20-22. Bioassay 4: Corn Earworm (Helicoverpa zea, HELIZE, “CEW”), Fall Armyworm (Spodoptera frugiperda, LAPHFR, “FAW”), and Soybean Looper (Chrysodeixis includens, PSEPIN, “SBL”).

[4] = test system: Corn Earworm (Helicoverpa zea, HELIZE, CEW); assay: Bioassay 4: corn earworm, artificial diet, 128-cell tray; settings: AI alone
Protocol: (§3) Stock solutions were prepared with F1 as well as for each of the active ingredients individually. Test solutions were prepared from the stock solutions. Test solutions were prepared containing F1, the individual active ingredients, and mixtures of F1 with each of the active ingredients. The test solution for F1 was prepared by adding 500 μL of the stock solution to a 25 mL glass vial, then adding 500 μL of a 9:1 mixture of acetone:water. The individual active ingredients were prepared by adding 500 μL of stock solution to a 25 mL glass vial, then adding 500 μL of a 9:1 mixture of acetone:water. The test solutions containing mixtures of F1, and the individual active ingredients were prepared by adding 500 μL of the active ingredient stock solution to a 25 mL glass vial, followed by 500 μL of the F1 stock solution, creating a test solution containing 0.04% (w/v) of F1 and 0.4% (w/v) of the active ingredient. Each test solution was serially diluted to create desired doses of test solutions (F1 at 0.04% (w/v), 0.004% (w/v), 0.0004% (w/v), 0.00004% (w/v), 0.000004% (w/v), and 0.0000004% (w/v) and active ingredients at 0.4% (w/v), 0.04% (w/v), 0.004% (w/v), 0.0004% (w/v), 0.00004% (w/v), and 0.000004% (w/v)).
(§4) The test solutions were tested against CEW, FAW, and SBL using the following procedure: an artificial lepidopteran diet (Multispecies Lepidopteran Diet, Southland Products) was distributed in 128-cell bioassay trays (Frontier Agricultural Sciences™). 50 μL of test solution was pipetted into a cell in the bioassay tray. (The test solution doses of 0.04% (w/v), 0.004% (w/v), 0.0004% (w/v), 0.00004% (w/v), 0.000004% (w/v), and 0.0000004% (w/v) translated to concentrations of 5, 0.5, 0.05, 0.005, 0.0005, and 0.00005 μg/cm^2 on the diet, respectively.) A reference treatment (solvent check) was treated with the diluent only. Each treatment was replicated 8 times for each species. A 2nd instar CEW, FAW, or SBL larva was placed on top of the diet in each cell and was contained with a clear perforated adhesive lid. Test trays were held at approximately 26° C. and ambient relative humidity (RH) prior to grading.
(§5) After 5 days, the number of live larvae were recorded from each cell and percent control was measured using Abbott's correction formula (W. S. Abbott, J. Econ. Entomol. 18 (1925), pp. 265-267) as follows:
(§6) where X=No. of live larvae on solvent check and Y=No. of live larvae on treated diet. In Table B4 the “Expected % Control” was calculated using the method described in Colby S. R., Weeds, 1967, 15, 20-22. Bioassay 5: Neotropical Brown Stink Bug (Euschistus heros, EUSCHE, “BSB”).

[5] = test system: Fall Armyworm (Spodoptera frugiperda, LAPHFR, FAW); assay: Bioassay 4: fall armyworm, artificial diet, 128-cell tray; settings: AI alone
Protocol: as §3, §4, §5, §6

[6] = test system: Soybean Looper (Chrysodeixis includens, PSEPIN, SBL); assay: Bioassay 4: soybean looper, artificial diet, 128-cell tray; settings: AI alone
Protocol: as §3, §4, §5, §6

[7] = test system: Corn Earworm (Helicoverpa zea, HELIZE, CEW); assay: Bioassay 7: corn earworm, artificial diet, 96 well plate
Protocol: as §1, §2

[8] = AI alone at 1:1 rate to F1 0.78 (10^-6 Wt %)
[9] = AI alone at 1:1 rate to F1 0.195 (10^-6 Wt %)
[10] = AI alone at 1:1 rate to F1 3.125 (10^-6 Wt %)

CO/C=C(/C(=O)OC)c1ccccc1Oc1cc(Oc2ccccc2C#N)ncn1 [Azoxystrobin]
Average % Control AI [1]: 0.0%

[Cu+2].[OH-].[OH-] [Copper Hydroxide]
Average % Control AI ([2]; AI alone at 0.4 wt %): 0.0%

CNC(=O)c1cc(C#N)cc(C)c1NC(=O)c1cc(Br)nn1-c1ncccc1Cl [Cyantraniliprole]
Average % Control AI [3, 8]: 0.0%
Average % Control AI ([4]; 0.000004 wt %): 0.0%
Average % Control AI ([4]; 0.00004 wt %): 0.0%
Average % Control AI ([5]; 0.000004 wt %): 0.0%
Average % Control AI ([5]; 0.00004 wt %): 0.0%
Average % Control AI ([6]; 0.000004 wt %): 0.0%
Average % Control AI ([6]; 0.00004 wt %): 0.0%

COc1ccc(Cl)c(S(=O)(=O)NC(=O)c2cn3cc(C(F)(F)F)cc(Cl)c3n2)c1 [Fluazain dolizine]
Average % Control AI [1]: 0.0%

N#Cc1c[nH]cc1-c1cccc2c1OC(F)(F)O2 [Fludioxonil]
Average % Control AI [1]: 0.0%

O=C(NCCc1ncc(C(F)(F)F)cc1Cl)c1ccccc1C(F)(F)F [Fluopyram]
Average % Control AI [1]: 0.0%

O=C(N=c1ccccn1Cc1ccc(Cl)nc1)C(F)(F)F [Flupyrimin]
Average % Control AI [3, 9]: 4.8%
Average % Control AI ([4]; 0.000004 wt %): 0.0%
Average % Control AI ([4]; 0.00004 wt %): 0.0%
Average % Control AI ([5]; 0.000004 wt %): 0.0%
Average % Control AI ([5]; 0.00004 wt %): 0.0%
Average % Control AI ([6]; 0.000004 wt %): 0.0%
Average % Control AI ([6]; 0.00004 wt %): 0.0%

Cn1cc(C(=O)Nc2ccccc2-c2cc(F)c(F)c(F)c2)c(C(F)F)n1 [Fluxapyroxad]
Average % Control AI [1]: 0.0%

CC(C)c1ccc(Cl)cc1CN(C(=O)c1c(C(F)F)nn(C)c1F)C1CC1 [Isoflucypram]
Average % Control AI [1]: 0.0%
Average % Control AI ([2]; AI alone at 0.4 wt %): 0.0%

CC(O)(Cn1cncn1)c1ccc(Oc2ccc(Cl)cc2)cc1C(F)(F)F (centres unmarked) [Mefentrifluconazole]
Average % Control AI ([7]; AI alone at 0.4 wt %): 0.0%
Average % Control AI [1]: 0.0%

CC1(C)CCC(Cc2ccc(Cl)cc2)C1(O)Cn1cncn1 (centres unmarked) [Metconazole]
Average % Control AI [1]: 0.0%

COc1cccc(C(=O)NN(C(=O)c2cc(C)cc(C)c2)C(C)(C)C)c1C [Methoxyfenozide]
Average % Control AI [3, 10]: 4.8%
Average % Control AI ([4]; 0.000004 wt %): 0.0%
Average % Control AI ([4]; 0.00004 wt %): 0.0%
Average % Control AI ([5]; 0.000004 wt %): 12.5%
Average % Control AI ([5]; 0.00004 wt %): 0.0%
Average % Control AI ([6]; 0.000004 wt %): 25.0%

Cc1cc(C(F)(F)F)nn1CC(=O)N1CCC(c2nc(C3=NOC(c4c(F)cccc4F)C3)cs2)CC1 (centres unmarked) [Oxathiapiprolin]
Average % Control AI ([7]; AI alone at 0.4 wt %): 0.0%
Average % Control AI ([2]; AI alone at 0.4 wt %): 0.0%

CCCC1COC(Cn2cncn2)(c2ccc(Cl)cc2Cl)O1 (centres unmarked) [Propiconazole]
Average % Control AI ([7]; AI alone at 0.4 wt %): 0.0%

COC(=O)N(OC)c1ccccc1COc1ccn(-c2ccc(Cl)cc2)n1 [Pyraclostrobin]
Average % Control AI ([7]; AI alone at 0.04 wt %): 0.0%
Average % Control AI ([2]; AI alone at 0.04 wt %): 0.0%

Spinosad
Average % Control AI [3, 10]: 57.1%
Average % Control AI ([4]; 0.000004 wt %): 0.0%
Average % Control AI ([4]; 0.00004 wt %): 0.0%
Average % Control AI ([5]; 0.000004 wt %): 12.5%
Average % Control AI ([6]; 0.000004 wt %): 0.0%

Tebuconazole
Average % Control AI ([7]; AI alone at 0.4 wt %): 0.0%

Tetraniliprole
Average % Control AI [3, 9]: 0.0%
Average % Control AI [3, 8]: 5.7%
Average % Control AI [3, 10]: 0.0%
Average % Control AI ([3]; AI alone at 1:1 rate to F1 12.5 (10^-6 Wt %)): 12.6%
Average % Control AI ([3]; AI alone at 1:1 rate to F1 50 (10^-6 Wt %)): 0.0%
Average % Control AI ([4]; 0.000004 wt %): 0.0%
Average % Control AI ([4]; 0.00004 wt %): 0.0%
Average % Control AI ([4]; 0.0004 wt %): 12.5%
Average % Control AI ([5]; 0.000004 wt %): 0.0%
Average % Control AI ([5]; 0.00004 wt %): 50.0%
Average % Control AI ([6]; 0.000004 wt %): 0.0%
Average % Control AI ([6]; 0.00004 wt %): 12.5%

Thiram
Average % Control AI ([7]; AI alone at 0.4 wt %): 0.0%
Average % Control AI ([2]; AI alone at 0.4 wt %): 0.0%
